These results are taken from patent US10941152B2, “Pyrazole compounds as modulators of FSHR and uses thereof” (TOCOPHERX, INC., priority 2014, dated 2021).

Molecules are shown by their SMILES.

The target in experiment [1] is T1, follicle-stimulating hormone (FSH) receptor (Rattus norvegicus, UniProt P20395).
T1 construct: endogenous in cells; host or cells: rat granulosa cells
T1 sequence (P20395 18-692): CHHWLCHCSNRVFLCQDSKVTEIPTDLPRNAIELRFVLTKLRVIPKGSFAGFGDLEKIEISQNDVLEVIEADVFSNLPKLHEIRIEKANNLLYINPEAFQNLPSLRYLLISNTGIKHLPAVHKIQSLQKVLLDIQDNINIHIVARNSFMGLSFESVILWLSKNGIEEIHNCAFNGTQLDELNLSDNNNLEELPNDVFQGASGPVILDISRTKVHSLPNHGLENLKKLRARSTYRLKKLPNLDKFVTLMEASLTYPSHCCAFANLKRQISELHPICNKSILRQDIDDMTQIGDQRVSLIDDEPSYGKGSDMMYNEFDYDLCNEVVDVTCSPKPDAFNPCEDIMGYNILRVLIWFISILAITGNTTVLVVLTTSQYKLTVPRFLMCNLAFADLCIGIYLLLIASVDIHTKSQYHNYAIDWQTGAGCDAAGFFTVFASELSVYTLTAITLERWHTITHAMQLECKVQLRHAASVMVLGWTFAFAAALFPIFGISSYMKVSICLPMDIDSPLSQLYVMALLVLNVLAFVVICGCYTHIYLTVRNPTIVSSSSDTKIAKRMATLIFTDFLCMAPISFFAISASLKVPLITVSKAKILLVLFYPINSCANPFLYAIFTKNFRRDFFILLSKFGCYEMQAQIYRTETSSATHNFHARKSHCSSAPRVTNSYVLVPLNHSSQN
The experiment in a line: Rat granulosa EC50 FSH (Assay B). Format: cell-based. How it is done: Example 25. Rat granulosa EC50 FSH (Assay B)
The assay was performed pursuant to the teaching of Yanofsky et al. (2006) Allosteric activation of the follicle-stimulating hormone (FSH) receptor by selective, nonpeptide agonists (JBC 281(19): 13226-13233, which is incorporated by reference in the disclosure of the invention).

A further experiment addresses T2, FSHR (Homo sapiens, UniProt P23945).
T2 construct: expressed in transfected cells; host or cells: CHO (Cho-FSHR-LUC-1-1-43)
T2 sequence (P23945 18-695): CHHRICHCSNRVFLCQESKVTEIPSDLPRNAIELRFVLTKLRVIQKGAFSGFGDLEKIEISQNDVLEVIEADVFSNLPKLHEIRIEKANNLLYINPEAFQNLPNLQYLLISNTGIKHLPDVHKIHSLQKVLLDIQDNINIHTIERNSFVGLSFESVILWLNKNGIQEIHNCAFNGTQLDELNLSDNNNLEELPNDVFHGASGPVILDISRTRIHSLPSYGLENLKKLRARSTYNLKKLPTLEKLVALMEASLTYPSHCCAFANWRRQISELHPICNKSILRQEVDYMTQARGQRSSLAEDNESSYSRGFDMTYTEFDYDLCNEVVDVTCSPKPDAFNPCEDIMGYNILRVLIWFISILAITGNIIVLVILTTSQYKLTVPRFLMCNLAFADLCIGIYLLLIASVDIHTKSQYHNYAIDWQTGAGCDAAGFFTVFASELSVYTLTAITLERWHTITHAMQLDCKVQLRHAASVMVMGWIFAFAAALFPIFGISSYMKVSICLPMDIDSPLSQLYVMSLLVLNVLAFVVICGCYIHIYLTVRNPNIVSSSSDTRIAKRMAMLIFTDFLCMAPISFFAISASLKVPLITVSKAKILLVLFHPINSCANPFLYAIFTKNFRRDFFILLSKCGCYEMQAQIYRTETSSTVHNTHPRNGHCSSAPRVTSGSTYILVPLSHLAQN
Nature of the experiment: EC50 of cyclic AMP production in CHO FSHR cells + EC20 FSH (Assay A). It counts as cell-based. Particulars: cyclic AMP production in CHO FSHR cells + EC20 FSH (0.265 pM), HTRF. How it is done: Example 24. EC50 of cyclic AMP production in CHO FSHR cells+EC20 FSH (Assay A)
2500 Cho-FSHR-LUC-1-1-43 cells were plated per well in 5 al of phenol red free DMEM/F12+1% FBS. Cells were plated in 384 well, solid white low volume plates (Greiner 784075) by Multidrop. Cells were assayed by adding 100 al of 2×EC20 FSH/IBMX in DMEM/F12+0.1% BSA) by Multidrop to 2 al of test compound stamped in 384 well plates (compounds are diluted 1:50). The final FSH concentration was 0.265 pM, and the final IBMX concentration was 200 μM. The compound plate map was as follows: Column 1: 2 μl of DMSO; Column 2: 2 μl of DMSO; Columns 3-12 and 13-24: 2 μl of test compound, diluted 1:4 in 100% DMSO, or 2 μl of FSH, diluted 1:4 in DMEM/F12+0.1% BSA. The starting concentration for FSH was 50 nM (final concentration was 0.5 nM). Furthermore, Column 23 contained 2 μl of EC100 FSH reference (100×) (diluted in DMEM/F12+0.1% BSA) at a final concentration of 0.5 nM, and Column 24 contained 2 μl of 1 mM AS707664/2 reference compound 2. 5 μl of compound+EC20 FSH mixture were transferred to cell plates (1:2 dilution into 5 μl of cell media) The plates were incubated at 37° C. for 1 h. 10 μl of mixed HTRF (CisBio #62AM4PEC) reagents were added per well and incubated at room temperature for 1 h. The plates were read on Envision using the cAMP HTRF—low volume 384 well protocol. The readout was the calculated fluorescence ratio (665 nm/620 nm). Values given in percent (%) indicate the percental effect (response) at a certain concentration of agonist relative to the maximum response of the FSH standard.
A general note: In TR-FRET formats the signal depends on donor and acceptor labels being close together.

As for `COc1cc2c(cc1-c1cnc(C)c(C(N)=O)c1)-c1c(c(C(=O)N(C)C(C)(C)C)nn1-c1cc(Cl)cc(Cl)c1)CO2` [Compound 170], the EC50 (as a rule, the concentration giving half of the maximal effect) was 101 to 500 nM in experiment [1] and < 10 nM on FSHR. Consider `COc1cc2c(cc1CC(C)C)-c1c(c(C(=O)N3CCC(=O)CC3(C)C)nn1-c1ccsc1)CO2` [Compound 125, 1-(8-isobutyl-7-methoxy-1-(thiophen-3-yl)-1,4-dihydrochromeno[4,3-c]pyrazole-3-carbonyl)-2,2-dimethylpiperidin-4-one], for which the EC50 was 10 to 100 nM in experiment [1] and < 10 nM at FSHR. `COc1cc2c(cc1-c1cnoc1C)-c1c(c(C(=O)N(C)C(C)(C)C)nn1-c1cc(Cl)cc(Cl)c1)CO2` [Compound 15, N-tert-butyl-1-(3,5-dichlorophenyl)-7-methoxy-N-methyl-8-(5-methylisoxazol-4-yl)-1,4-dihydrochromeno[4,3-c]pyrazole-3-carboxamide]: the EC50 at FSHR is < 10 nM. With `COc1cc(Cl)cc(-n2nc(C(=O)N(C)C(C)(C)C)c3c2-c2cc(-c4cncc(C#N)c4)c(OC)cc2OC3)c1` [Compound 35, N-tert-butyl-1-(3-chloro-5-methoxyphenyl)-8-(5-cyanopyridin-3-yl)-7-methoxy-N-methyl-1,4-dihydrochromeno[4,3-c]pyrazole-3-carboxamide], on FSHR, the EC50 is < 10 nM. Still for that read-out and setting: then `COc1cc2c(cc1-c1ccn(C)n1)-c1c(c(C(=O)N3CCS(=O)(=O)CC3(C)C)nn1-c1cc(Cl)cc(Cl)c1)CO2` [Compound 13, 4-{[1-(3,5-dichlorophenyl)-7-methoxy-8-(1-methyl-1H-pyrazol-3-yl)-1H,4H-chromeno[4,3-c]pyrazol-3-yl]carbonyl}-3,3-dimethyl-1l{6},4-thiomorpholine-1,1-dione], with 10 to 100 nM; and `COc1cc(OC)cc(-n2nc(C(=O)N3CC[S+]([O-])CC3(C)C)c3c2-c2cc(-c4cncc(C)c4)c(OC)cc2OC3)c1` (centres unmarked) [Compound 45, (1-(3,5-dimethoxyphenyl)-7-methoxy-8-(5-methylpyridin-3-yl)-1,4-dihydrochromeno[4,3-c]pyrazol-3-yl)(S-oxo-3,3-dimethylthiomorpholino)methanone], with < 10 nM; and `COc1cc(OC)cc(-n2nc(C(=O)N(CCO)C(C)(C)C)c3c2-c2cc(-c4ccn(C)n4)c(OC)cc2OC3)c1` [Compound 124, N-tert-butyl-1-(3,5-dimethoxyphenyl)-N-(2-hydroxyethyl)-7-methoxy-8-(1-methyl-1H-pyrazol-3-yl)-1,4-dihydrochromeno[4,3-c]pyrazole-3-carboxamide], with 10 to 100 nM.

On to `COc1cc2c(cc1CC(C)C)-c1c(c(C(=O)N(C)C(C)(C)C#N)nn1-c1ccsc1)CO2` [Compound 133, N-(2-cyanopropan-2-yl)-8-isobutyl-7-methoxy-N-methyl-1-(thiophen-3-yl)-1,4-dihydrochromeno[4,3-c]pyrazole-3-carboxamide], for which the half-maximal effective concentration (EC50) at FSHR is < 10 nM. For `COc1cc(OC)cc(-n2nc(C(=O)N(C)C(C)(C)C)c3c2-c2cc(-c4nn(C)cc4C(N)=O)c(OC)cc2OC3)c1` [Compound 144, N-tert-butyl-8-(4-carbamoyl-1-methyl-1H-pyrazol-3-yl)-1-(3,5-dimethoxyphenyl)-7-methoxy-N-methyl-1,4-dihydrochromeno[4,3-c]pyrazole-3-carboxamide], the concentration giving a half-maximal response (EC50) on FSHR was > 500 nM. For the molecule `COc1cc2c(cc1-c1ccn(C)n1)-c1c(c(C(=O)N3CCC(S(C)(=O)=O)CC3(C)C)nn1-c1ccsc1)CO2` (centres unmarked) [Compound 129, (2,2-dimethyl-4-(methylsulfonyl)piperidin-1-yl)(7-methoxy-8-(1-methyl-1H-pyrazol-3-yl)-1-(thiophen-3-yl)-1,4-dihydrochromeno[4,3-c]pyrazol-3-yl)methanone], on FSHR, the 50% effective concentration (EC50) was in the range of 10 to 100 nM.

With `COc1cc2c(cc1C#CC(N)=O)-c1c(c(C(=O)N(C)C(C)(C)C)nn1-c1ccsc1)CO2` [Compound 186, 8-(3-amino-3-oxoprop-1-ynyl)-N-tert-butyl-7-methoxy-N-methyl-1-(thiophen-3-yl)-1,4-dihydrochromeno[4,3-c]pyrazole-3-carboxamide], the EC50 on FSHR was in the range of 10 to 100 nM. Consider `COc1cc(OC)cc(-n2nc(C(=O)N3CCOCC3(C)C)c3c2-c2cc(-c4ccccn4)c(OC)cc2OC3)c1` [Compound 47, (1-(3,5-dimethoxyphenyl)-7-methoxy-8-(pyridin-2-yl)-1,4-dihydrochromeno[4,3-c]pyrazol-3-yl)(3,3-dimethylmorpholino)methanone], for which the concentration for a half-maximal effect (EC50) at FSHR lay in the range of 10 to 100 nM.

As to `COc1cc2c(cc1-c1cnn(CC(O)CO)c1)-c1c(c(C(=O)N(C)C(C)(C)C)nn1-c1cc(Cl)cc(Cl)c1)CO2` (single isomer, unassigned) [Compound 192, N-tert-butyl-1-(3,5-dichlorophenyl)-8-(1-(2,3-dihydroxypropyl)-1H-pyrazol-4-yl)-7-methoxy-N-methyl-1,4-dihydrochromeno[4,3-c]pyrazole-3-carboxamide], on FSHR, the half-maximal effective concentration (EC50) lay within 101 to 500 nM. With `COc1cc2c(cc1-c1ccc(F)c(C(=O)O)c1)-c1c(c(C(=O)N(C)C(C)(C)C)nn1-c1cc(Cl)cc(Cl)c1)CO2` [Compound 180], the EC50 on FSHR lay in the range of 10 to 100 nM. Regarding `COc1cc2c(cc1-c1ccccn1)-c1c(c(C(=O)N3CCOCC3(C)C)nn1-c1cc(Cl)cc(Cl)c1)CO2` [Compound 11, (1-(3,5-dichlorophenyl)-7-methoxy-8-(pyridin-2-yl)-1,4-dihydrochromeno[4,3-c]pyrazol-3-yl)(3,3-dimethylmorpholino)methanone], the concentration giving a half-maximal response (EC50) on FSHR was < 10 nM. As to `COc1cc2c(cc1[C@H]1C[C@@H]1C(=O)O)-c1c(c(C(=O)N(C)C(C)(C)C)nn1-c1cc(F)cc(F)c1)CO2` (racemic) [Compound 205], the EC50 on FSHR was 10 to 100 nM. With `CCC1(COC)CCCN1C(=O)c1nn(-c2ccsc2)c2c1COc1cc(OC)c(-c3ccn(C)n3)cc1-2` (centres unmarked) [Compound 128, (2-ethyl-2-(methoxymethyl)pyrrolidin-1-yl)(7-methoxy-8-(1-methyl-1H-pyrazol-3-yl)-1-(thiophen-3-yl)-1,4-dihydrochromeno[4,3-c]pyrazol-3-yl)methanone], the EC50 at FSHR is 10 to 100 nM. In the case of `COc1cc2c(cc1-c1ccn(C)n1)-c1c(c(C(=O)N3CCCC3(CO)CC(C)C)nn1-c1ccsc1)CO2` (centres unmarked) [Compound 126, (2-(hydroxymethyl)-2-isobutylpyrrolidin-1-yl)(7-methoxy-8-(1-methyl-1H-pyrazol-3-yl)-1-(thiophen-3-yl)-1,4-dihydrochromeno[4,3-c]pyrazole-3-yl)methanone], the EC50 at FSHR was in the range of 10 to 100 nM.
